Structures are written as SMILES. pIC50: −log10 of the molar value. Structures can show the parent of a compound that is named as a salt. Where two headings read alike, the source gives them in different places.

Common to all, as to type: biochemical
For test [1], the target named is maltase (from porcine intestinal mucosa). Briefly: inhibitory activity against maltase prepared from porcine intestinal mucosa (substrate maltose). On the procedure: (§1) The inhibitory activities of the compounds of this invention against α-glucosidase (yeast, type I, produced by Sigma Chemical Co. the United States of America) as well as maltase and saccharase prepared from porcine intestinal mucosa (prepared in accordance with the procedure as described by B. Borgstro m and A. Dahlgvist in Acta Chem. Scand.; 12, 1997-2006, (1958)), when maltose and sucrose are used as a substrate, are determined by adding to 0.25 ml of a solution of an enzyme prepared by diluting suitably with 0.02M phosphate buffer (pH 6.8) 0.5 ml of a solution of an inhibitory substance to be tested in the same buffer and 0.25 ml of 0.05M maltose or 0.05M sucrose as the substrate in the same buffer, allowing the mixture to react at 37° C. for 10 minutes, then adding 3 ml of Glucose B-Test Reagent (a glucose oxidase reagent for measurement of glucose, produced by Wako Pure Chemical Co., Japan), further warming the mixture at 37° C. for 20 minutes, and measuring the absorbance of the reaction solution at 505 nm. […]

In test [2] the target is T1, saccharase (from porcine intestinal mucosa) (Sus scrofa, UniProt P56729).
T1 construct: maltase and saccharase prepared from porcine intestinal mucosa; from tissue; host or cells: porcine intestinal mucosa
T1 sequence (P56729 with tags, fused parts or gaps limits assumed): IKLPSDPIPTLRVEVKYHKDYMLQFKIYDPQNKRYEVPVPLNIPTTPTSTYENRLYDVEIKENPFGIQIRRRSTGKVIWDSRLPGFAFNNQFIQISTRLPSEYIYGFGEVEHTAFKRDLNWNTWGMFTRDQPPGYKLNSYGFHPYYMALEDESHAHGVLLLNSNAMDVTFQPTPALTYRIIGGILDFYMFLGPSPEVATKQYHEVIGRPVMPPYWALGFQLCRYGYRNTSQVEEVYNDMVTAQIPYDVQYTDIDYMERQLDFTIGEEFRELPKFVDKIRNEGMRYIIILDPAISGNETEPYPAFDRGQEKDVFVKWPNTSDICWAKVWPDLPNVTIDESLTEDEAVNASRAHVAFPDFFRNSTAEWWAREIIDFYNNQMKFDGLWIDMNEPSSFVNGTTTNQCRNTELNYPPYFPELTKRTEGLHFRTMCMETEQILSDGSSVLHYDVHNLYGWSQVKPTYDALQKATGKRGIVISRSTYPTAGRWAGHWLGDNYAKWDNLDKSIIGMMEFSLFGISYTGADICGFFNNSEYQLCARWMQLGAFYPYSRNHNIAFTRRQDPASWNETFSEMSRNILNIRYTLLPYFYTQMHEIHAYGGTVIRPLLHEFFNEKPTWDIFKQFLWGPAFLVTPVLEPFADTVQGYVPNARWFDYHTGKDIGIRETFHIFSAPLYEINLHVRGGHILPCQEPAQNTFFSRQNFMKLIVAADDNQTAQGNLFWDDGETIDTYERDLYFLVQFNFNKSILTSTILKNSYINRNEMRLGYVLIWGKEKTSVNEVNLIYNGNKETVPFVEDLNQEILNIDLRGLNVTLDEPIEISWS
T1 sequence (P56729 with tags, fused parts or gaps partner limits assumed): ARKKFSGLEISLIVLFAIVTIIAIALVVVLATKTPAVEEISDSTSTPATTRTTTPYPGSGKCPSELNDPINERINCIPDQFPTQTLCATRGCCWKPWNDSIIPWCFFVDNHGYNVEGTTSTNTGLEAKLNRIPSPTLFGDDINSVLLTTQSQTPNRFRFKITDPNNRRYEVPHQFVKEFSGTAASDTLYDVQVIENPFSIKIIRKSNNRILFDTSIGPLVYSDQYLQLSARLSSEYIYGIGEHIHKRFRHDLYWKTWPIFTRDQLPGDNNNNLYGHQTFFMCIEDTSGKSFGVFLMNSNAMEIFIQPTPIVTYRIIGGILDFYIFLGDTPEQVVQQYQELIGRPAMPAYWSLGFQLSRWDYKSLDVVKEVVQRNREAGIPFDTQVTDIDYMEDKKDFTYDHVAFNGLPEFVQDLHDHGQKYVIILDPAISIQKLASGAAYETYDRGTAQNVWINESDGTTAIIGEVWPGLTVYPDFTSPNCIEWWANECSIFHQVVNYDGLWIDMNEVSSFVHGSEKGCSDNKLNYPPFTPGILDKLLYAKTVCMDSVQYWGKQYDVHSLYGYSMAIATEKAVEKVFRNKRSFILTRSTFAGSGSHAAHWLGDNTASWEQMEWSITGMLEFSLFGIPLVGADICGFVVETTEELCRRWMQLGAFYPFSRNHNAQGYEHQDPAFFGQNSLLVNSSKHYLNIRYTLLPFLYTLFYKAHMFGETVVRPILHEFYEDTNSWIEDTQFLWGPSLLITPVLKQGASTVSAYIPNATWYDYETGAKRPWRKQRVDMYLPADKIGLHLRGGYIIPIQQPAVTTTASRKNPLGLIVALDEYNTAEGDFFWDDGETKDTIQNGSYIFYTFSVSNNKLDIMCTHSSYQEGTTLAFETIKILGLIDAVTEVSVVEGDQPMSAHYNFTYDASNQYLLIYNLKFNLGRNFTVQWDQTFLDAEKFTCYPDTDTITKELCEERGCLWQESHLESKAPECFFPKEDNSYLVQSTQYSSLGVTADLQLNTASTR
The experiment in a line: inhibitory activity against saccharase prepared from porcine intestinal mucosa (substrate sucrose). The procedure:
as §1

The test system of another test is α-glucoside hydrolase. Briefly: α-glucosidase inhibitory activity (general statement). The following applies: statement in words.
Where [3] appears, read: read-out: The concentrations of 50% inhibition against maltase (substrate:maltose) IC50, Table 1, porcine intestinal mucosa maltase, substrate maltose, pH 6.8, 37° C.
The mark [4] stands for this setting: Table 2, porcine intestinal mucosa saccharase, substrate sucrose, pH 6.8, 37° C.
The mark [5] stands for this setting: IC50 (saccharase), given in the examples.
Where [6] appears, read: given in the examples, read-out: IC50 (maltase).
Where [7] appears, read: given in the examples, read-out: IC50 (saccharase).

`CC(C)(C)c1cc(CN[C@H]2C[C@H](CO)[C@@H](O)[C@H](O)[C@H]2O)cc(C(C)(C)C)c1O`: in test [1] (setting [3]), the pIC50 is 4.44.
Consider `OC[C@@]1(O)C[C@H](NCC2CCCCC2)[C@H](O)[C@@H](O)[C@@H]1O`, for which the pIC50 in test [2] (setting [4]) is 8.03.
Same read-out and setting: the figure for `CC(C)=CCC/C(C)=C/CN[C@H]1C[C@](O)(CO)[C@@H](O)[C@H](O)[C@H]1O` is 7.96.
`OCC(O)C(O)C(O)C(O)CN[C@H]1C[C@](O)(CO)[C@@H](O)[C@H](O)[C@H]1O` (some centres unmarked): the pIC50 in test [2] (setting [4]) was 7.44.
Same read-out and setting: the figure for `OC[C@@]1(O)C[C@H](NCc2ccc(Br)cc2)[C@H](O)[C@@H](O)[C@@H]1O` is 7.82; for `OCC1(O)CC(NCc2ccco2)C(O)C(O)C1O` (centres unmarked) it is 7.82.
`OC[C@@]1(O)C[C@H](NC2CCCC2O)[C@H](O)[C@@H](O)[C@@H]1O` (single isomer, unassigned) [Example 38 Isomer showing [α]D^24 +40.4°, N-(2-hydroxycyclopentyl)valiolamine] had a pIC50 in test [2] (setting [5]) of 6.89.
Regarding `OC[C@@]1(O)C[C@H](NC2CCCC2O)[C@H](O)[C@@H](O)[C@@H]1O` (single isomer, unassigned) [Example 38 Isomer showing [α]D^24-16.2°, N-(2-hydroxycyclopentyl)valiolamine], the figures for the pIC50 in test [1] (setting [6]) and in test [2] (setting [5]) were 7.24 and 7.62, respectively.
With `OC[C@@]1(O)C[C@H](NCC(O)c2ccccc2)[C@H](O)[C@@H](O)[C@@H]1O` (single isomer, unassigned) [drawing 8], in test [1] (setting [3]), the pIC50 is 7.30.
As for `OC[C@@]1(O)C[C@H](NCC(O)c2ccccc2)[C@H](O)[C@@H](O)[C@@H]1O` (single isomer, unassigned) [drawing 9], the pIC50 in test [1] (setting [3]) was 8.24.
Turning to `OC[C@@]1(O)C[C@H](NCC(O)c2ccccc2)[C@H](O)[C@@H](O)[C@@H]1O` (single isomer, unassigned) [drawing 18], the pIC50 in test [2] (setting [4]) is 7.72.
With `OC[C@@]1(O)C[C@H](NCC(O)c2ccccc2)[C@H](O)[C@@H](O)[C@@H]1O` (single isomer, unassigned) [drawing 19], in test [2] (setting [4]), the pIC50 was 8.54.
`CC(C)=CCC/C(C)=C/CN[C@H]1C[C@H](CO)[C@@H](O)[C@H](O)[C@H]1O` [Example 12, N-geranylvalidamine sulfate]: in test [2] (setting [7]), the pIC50 was 6.10.
In the case of `OCC(N[C@H]1C[C@H](CO)[C@@H](O)[C@H](O)[C@H]1O)[C@@H](O)[C@H](O)[C@@H](O)CO` (stereo partly drawn) [Example 16, N-(L-xylo-2,3,4,5-tetrahydroxy-1-hydroxymethylpentyl)validamine], the pIC50 in test [2] (setting [7]) was 7.10.
In the case of `OC[C@H]1C[C@H](NCC(O)COc2ccccc2)[C@H](O)[C@@H](O)[C@@H]1O` (some centres unmarked) [Example 18, N-(2-hydroxy-3-phenoxypropyl)validamine], in test [1] (setting [6]), the pIC50 is 5.47.
Consider `OCC(N[C@H]1C[C@H](CO)[C@@H](O)[C@H](O)[C@H]1O)[C@@H](O)[C@H](O)[C@H](O)CO` (stereo partly drawn) [Example 19, N-(D-arabino-2,3,4,5-tetrahydroxy-1-hydroxymethylpentyl)validamine], for which, in test [1] (setting [6]), the pIC50 was 6.23.
In test [2] (setting [5]), `OC[C@H]1C[C@H](NC2CCCCC2O)[C@H](O)[C@@H](O)[C@@H]1O` (some centres unmarked) [Example 20, N-(2-hydroxycyclohexyl)validamine] had a pIC50 of 7.02.
Consider `OC[C@H]1C[C@H](NC2CCCC2O)[C@H](O)[C@@H](O)[C@@H]1O` (some centres unmarked) [Example 21, N-(2-hydroxycyclopentyl)validamine], for which the pIC50 in test [2] (setting [5]) was 6.89.
With `OC[C@@]1(O)C[C@H](NC2CCCCC2)[C@H](O)[C@@H](O)[C@@H]1O` [Example 37, N-cyclohexylvaliolamine], the pIC50 in test [1] (setting [6]) was 6.39; in test [2] (setting [7]), 7.82.
`OC[C@@]1(O)C[C@H](NC2CCCC2)[C@H](O)[C@@H](O)[C@@H]1O` [Example 39, N-cyclopentylvaliolamine] showed a pIC50 in test [2] (setting [5]) of 7.60.
Regarding `CC(C)(C)c1cc(CN[C@H]2C[C@](O)(CO)[C@@H](O)[C@H](O)[C@H]2O)cc(C(C)(C)C)c1O` [Example 40, N-(3,5,-di-tert-butyl-4-hydroxybenzyl)valiolamine], the pIC50 is 7.37 in test [1] (setting [6]) and 8.17 in test [2] (setting [7]).
`COc1ccccc1C(O)CN[C@H]1C[C@](O)(CO)[C@@H](O)[C@H](O)[C@H]1O` (stereo partly drawn) [Example 41, N-(β-hydroxy-2-methoxyphenetyl)valiolamine]: the pIC50 in test [1] (setting [6]) was 7.20; in test [2] (setting [7]), 8.00.
As to `OCC(N[C@H]1C[C@H](CO)[C@@H](O)[C@H](O)[C@H]1O)c1ccccc1` (stereo partly drawn) [N-[α-(hydroxymethyl)benzyl]validamine], the pIC50 in test [1] (setting [6]) is 5.35.
As to `OCC(CO)N[C@H]1C[C@](O)(CO)[C@@H](O)[C@H](O)[C@H]1O` [drawing 7], the pIC50 in test [1] (setting [3]) was 7.82.
`OC[C@H]1C[C@H](NCC(O)c2ccccc2)[C@H](O)[C@@H](O)[C@@H]1O` (some centres unmarked) [drawing 10]: in test [1] (setting [3]), the pIC50 was 5.77.
Regarding `OCC(N[C@H]1C[C@H](CO)[C@@H](O)[C@H](O)[C@H]1O)C(O)c1ccccc1` (some centres unmarked) [drawing 11], in test [1] (setting [3]), the pIC50 is 4.49.
`OC[C@@]1(O)C[C@H](NCC(O)COc2ccccc2)[C@H](O)[C@@H](O)[C@@H]1O` (some centres unmarked) [drawing 12]: the pIC50 in test [1] (setting [3]) is 7.48.
`OC[C@@]1(O)C[C@H](NCCc2ccccc2)[C@H](O)[C@@H](O)[C@@H]1O` [drawing 13]: the pIC50 in test [1] (setting [3]) is 7.00.
On the same count and under the same terms, the figure for `OC[C@H]1C[C@H](NCCCc2ccccc2)[C@H](O)[C@@H](O)[C@@H]1O` [drawing 14] is 4.04.
`OCC(CO)N[C@H]1C[C@](O)(CO)[C@@H](O)[C@H](O)[C@H]1O` [drawing 17] showed a pIC50 in test [2] of 8.34.
In the case of `OC[C@@]1(O)C[C@H](NCC(O)COc2ccccc2)[C@H](O)[C@@H](O)[C@@H]1O` (some centres unmarked) [drawing 20], the pIC50 in test [2] (setting [4]) is 8.07.
The same measure, in the same setting: with `OC[C@H]1C[C@H](NCCCc2ccccc2)[C@H](O)[C@@H](O)[C@@H]1O` [drawing 24] the figure was 5.72; with `OC[C@@]1(O)C[C@H](NCCc2ccccc2)[C@H](O)[C@@H](O)[C@@H]1O` [drawing 26], 8.64.
The same measure, in the same setting: with `OC[C@H]1C[C@H](NCC(O)c2ccccc2)[C@H](O)[C@@H](O)[C@@H]1O` (some centres unmarked) [drawing 32] the figure was 7.66; with `OCC(N[C@H]1C[C@H](CO)[C@@H](O)[C@H](O)[C@H]1O)C(O)c1ccccc1` (some centres unmarked) [drawing 33], 6.59.
As for `N[C@H]1C[C@H](CO)[C@@H](O)[C@H](O)[C@H]1O` [validamine], in the test with α-glucoside hydrolase, the α-glucosidase inhibitory activity entry is “possesses a highly valuable action of suppressing the function of α-glucoside hydrolase”.
Still for that read-out and setting: with `N[C@H]1C[C@](O)(CO)[C@@H](O)[C@H](O)[C@H]1O` [valiolamine, 1L(1S)-(1(OH),2,4,5/1,3)-5-amino-1-hydroxymethyl-1,2,3,4-cyclohexanetetrol] the entry was “α-glucosidase inhibitory activity”.

The values above are taken from patent US4803303A, “N-substituted pseudo-aminosugars, their production and use” (Takeda Chemical Industries, Ltd., priority 1981, dated 1989).
